A value given as a limit tells only on which side of the number the result lay.

The test system of this assay is HCV 1b-Con1 replicon. The experiment in a line: HCV 1b-Con1 replicon assay in the presence of 5% FBS. It counts as cell-based. To be noted: Hepatitis C virus. A general note: A replicon is a self-replicating genome or part of one, used to study replication in cells.
As a reminder, the EC50 is the midpoint of the concentration-response curve. For the molecule `COC(=O)N[C@H](C(=O)N1CCC[C@H]1c1nc2cc([C@H]3CC[C@H](c4cc5nc([C@@H]6CCCN6C(=O)[C@@H](NC(=O)OC)C(C)C)[nH]c5cc4F)N3c3cc(F)c(N4CCCCC4)c(F)c3)c(F)cc2[nH]1)C(C)C` [Example 6.10, methyl {(2S)-1-[(2S)-2-{5-[(2R,5R)-1-[3,5-difluoro-4-(piperidin-1-yl)phenyl]-5-{6-fluoro-2-[(2S)-1-{(2S)-2-[(methoxycarbonyl)amino]-3-methylbutanoyl}pyrrolidin-2-yl]-1H-benzimidazol-5-yl}pyrrolidin-2-yl]-6-fluoro-1H-benzimidazol-2-yl}pyrrolidin-1-yl]-3-methyl-1-oxobutan-2-yl}carbamate], the EC50 is under 0.1 nM.
The value for `COC(=O)N[C@H](C(=O)N1CCC[C@H]1c1nc2cc([C@H]3CC[C@H](c4ccc5[nH]c([C@@H]6CCCN6C(=O)[C@@H](NC(=O)OC)C(C)C)nc5c4)N3c3cc(F)c(N4CCC(C(C)(C)C)CC4)c(F)c3)ccc2[nH]1)C(C)C` [Example 5.9, methyl {(2S)-1-[(2S)-2-{5-[(2R,5R)-1-[4-(4-tert-butylpiperidin-1-yl)-3,5-difluorophenyl]-5-{2-[(2S)-1-{(2S)-2-[(methoxycarbonyl)amino]-3-methylbutanoyl}pyrrolidin-2-yl]-1H-benzimidazol-5-yl}pyrrolidin-2-yl]-1H-benzimidazol-2-yl}pyrrolidin-1-yl]-3-methyl-1-oxobutan-2-yl}carbamate] was under 0.1 nM.
Under `COC(=O)N[C@H](C(=O)N1CCC[C@H]1c1nc2ccc([C@H]3CC[C@H](c4ccc5nc([C@@H]6CCCN6C(=O)[C@@H](NC(=O)OC)C(C)C)[nH]c5c4)N3c3ccc(OCC(F)F)cc3)cc2[nH]1)C(C)C` [Example 4.11, methyl {(2S)-1-[(2S)-2-{6-[(2R,5R)-1-[4-(2,2-difluoroethoxy)phenyl]-5-{2-[(2S)-1-{(2S)-2-[(methoxycarbonyl)amino]-3-methylbutanoyl}pyrrolidin-2-yl]-1H-benzimidazol-6-yl}pyrrolidin-2-yl]-1H-benzimidazol-2-yl}pyrrolidin-1-yl]-3-methyl-1-oxobutan-2-yl}carbamate] stands under 0.1 nM; under `COC(=O)N[C@H](C(=O)N1CCC[C@H]1c1nc2cc([C@H]3CC[C@H](c4cc5nc([C@@H]6CCCN6C(=O)[C@@H](NC(=O)OC)C6CCCC6)[nH]c5cc4F)N3c3cc(F)c(N4CCC(c5ccccc5)CC4)c(F)c3)c(F)cc2[nH]1)C1CCCC1` [Example 4.40, dimethyl ({(2R,5R)-1-[3,5-difluoro-4-(4-phenylpiperidin-1-yl)phenyl]pyrrolidine-2,5-diyl}bis{(6-fluoro-1H-benzimidazole-5,2-diyl)(2S)pyrrolidine-2,1-diyl[(1S)-1-cyclopentyl-2-oxoethane-2,1-diyl]})biscarbamate], under 0.1 nM.
Under `COC(=O)N[C@H](C(=O)N1CCC[C@H]1c1nc2cc([C@H]3CC[C@H](c4ccc5[nH]c([C@@H]6CCCN6C(=O)[C@@H](NC(=O)OC)C6CCOCC6)nc5c4)N3c3cc(F)c(N4CCC(c5ccccc5)CC4)c(F)c3)ccc2[nH]1)C1CCOCC1` [Example 3.23, dimethyl ({(2R,5R)-1-[3,5-difluoro-4-(4-phenylpiperidin-1-yl)phenyl]pyrrolidine-2,5-diyl}bis{1H-benzimidazole-5,2-diyl(2S)pyrrolidine-2,1-diyl [(1S)-2-oxo-1-(tetrahydro-2H-pyran-4-yl)ethane-2,1-diyl]})biscarbamate] stands under 0.1 nM; under `COC(=O)N[C@H](C(=O)N1CCC[C@H]1c1ncc(-c2cccc(C3(c4cccc(-c5cnc([C@@H]6CCCN6C(=O)[C@@H](NC(=O)OC)C(C)C)[nH]5)c4)CN(c4ccccc4)C3)c2)[nH]1)C(C)C` [Example 12.2, methyl {(2S)-1-[(2S)-2-(5-{3-[3-(3-{2-[(2S)-1-{(2S)-2-[(methoxycarbonyl)amino]-3-methylbutanoyl}pyrrolidin-2-yl]-1H-imidazol-5-yl}phenyl)-1-phenylazetidin-3-yl]phenyl}-1H-imidazol-2-yl)pyrrolidin-1-yl]-3-methyl-1-oxobutan-2-yl}carbamate], 1 to 10 nM; under `COC(=O)N[C@H](C(=O)N1[C@H](c2nc3cc([C@H]4CC[C@H](c5ccc6[nH]c([C@@H]7C[C@@H]8CCC[C@@H]8N7C(=O)[C@@H](NC(=O)OC)C(C)C)nc6c5)N4c4cc(F)c(N5CCC(c6ccccc6)CC5)c(F)c4)ccc3[nH]2)C[C@@H]2CCC[C@@H]21)C(C)C` [Example 3.28, methyl {(2S)-1-[(2S,3aS,6aS)-2-{5-[(2R,5R)-1-[3,5-difluoro-4-(4-phenylpiperidin-1-yl)phenyl]-5-{2-[(2S,3aS,6aS)-1-{(2S)-2-[(methoxycarbonyl)amino]-3-methylbutanoyl}octahydrocyclopenta[b]pyrrol-2-yl]-1H-benzimidazol-5-yl}pyrrolidin-2-yl]-1H-benzimidazol-2-yl}hexahydrocyclopenta[b]pyrrol-1(2H)-yl]-3-methyl-1-oxobutan-2-yl}carbamate], under 0.1 nM.
On to `COC(=O)N[C@H](C(=O)N1CCC[C@H]1c1nc2cc([C@H]3CC[C@H](c4cc5nc([C@@H]6CCCN6C(=O)[C@@H](NC(=O)OC)C(C)C)[nH]c5cc4F)N3c3cc(F)c(N4CCC(CCCc5ccccc5)CC4)c(F)c3)c(F)cc2[nH]1)C(C)C` [Example 4.26, methyl {(2S)-1-[(2S)-2-{5-[(2R,5R)-1-{3,5-difluoro-4-[4-(3-phenylpropyl)piperidin-1-yl]phenyl}-5-{6-fluoro-2-[(2S)-1-{(2S)-2-[(methoxycarbonyl)amino]-3-methylbutanoyl}pyrrolidin-2-yl]-1H-benzimidazol-5-yl}pyrrolidin-2-yl]-6-fluoro-1H-benzimidazol-2-yl}pyrrolidin-1-yl]-3-methyl-1-oxobutan-2-yl}carbamate], for which the EC50 was under 0.1 nM.
Under `COC(=O)N[C@H](C(=O)N1CCC[C@H]1c1nc2cc([C@H]3CC[C@H](c4cc5nc([C@@H]6CCCN6C(=O)[C@@H](NC(=O)OC)C(C)C)[nH]c5cc4F)N3c3cc(F)c(N4CCN(c5ccc(C(F)(F)F)cc5)CC4)c(F)c3)c(F)cc2[nH]1)C(C)C` [Example 4.42, methyl {(2S)-1-[(2S)-2-{5-[(2R,5R)-1-(3,5-difluoro-4-{4-[4-(trifluoromethyl)phenyl]piperazin-1-yl}phenyl)-5-{6-fluoro-2-[(2S)-1-{(2S)-2-[(methoxycarbonyl)amino]-3-methylbutanoyl}pyrrolidin-2-yl]-1H-benzimidazol-5-yl}pyrrolidin-2-yl]-6-fluoro-1H-benzimidazol-2-yl}pyrrolidin-1-yl]-3-methyl-1-oxobutan-2-yl}carbamate] stands under 0.1 nM; under `COC(=O)N[C@H](C(=O)N1C[C@H](OC)C[C@H]1c1nc2cc([C@H]3CC[C@H](c4ccc5[nH]c([C@@H]6C[C@@H](OC)CN6C(=O)[C@@H](NC(=O)OC)C(C)C)nc5c4)N3c3cc(F)c(N4CCCCC4)c(F)c3)ccc2[nH]1)C(C)C` [Example 5.5, methyl {(2S)-1-[(2S,4R)-2-{5-[(2R,5R)-1-[3,5-difluoro-4-(piperidin-1-yl)phenyl]-5-{2-[(2S,4R)-4-methoxy-1-{(2S)-2-[(methoxycarbonyl)amino]-3-methylbutanoyl}pyrrolidin-2-yl]-1H-benzimidazol-5-yl}pyrrolidin-2-yl]-1H-benzimidazol-2-yl}-4-methoxypyrrolidin-1-yl]-3-methyl-1-oxobutan-2-yl}carbamate], under 0.1 nM.
The value for `COC(=O)N[C@H](C(=O)N1[C@H](c2nc3cc([C@H]4CC[C@H](c5cc6nc([C@@H]7C[C@@H]8CCC[C@@H]8N7C(=O)[C@@H](NC(=O)OC)C7CCCC7)[nH]c6cc5F)N4c4cc(F)c(N5CCCCC5)c(F)c4)c(F)cc3[nH]2)C[C@@H]2CCC[C@@H]21)C1CCCC1` [Example 3.40, dimethyl ({(2R,5R)-1-[3,5-difluoro-4-(piperidin-1-yl)phenyl]pyrrolidine-2,5-diyl}bis{(6-fluoro-1H-benzimidazole-5,2-diyl)(2S,3aS,6aS)hexahydrocyclopenta[b]pyrrole-2,1(2H)-diyl[(1S)-1-cyclopentyl-2-oxoethane-2,1-diyl]})biscarbamate] was under 0.1 nM; that for `COC(=O)N[C@H](C(=O)N1CCCC1c1nc2cc([C@H]3CC[C@H](c4ccc5[nH]c([C@@H]6CCCN6)nc5c4)N3c3ccc(C(C)(C)C)cc3)ccc2[nH]1)C(C)C` (stereo partly drawn) [Example 4.20, methyl [(2S)-1-(2-{5-[(2R,5R)-1-(4-tert-butylphenyl)-5-{2-[(2S)-pyrrolidin-2-yl]-1H-benzimidazol-5-yl}pyrrolidin-2-yl]-1H-benzimidazol-2-yl}pyrrolidin-1-yl)-3-methyl-1-oxobutan-2-yl]carbamate] was under 0.1 nM; that for `COC(=O)N[C@H](C(=O)N1CCC[C@H]1c1nc2cc([C@H]3CC[C@H](c4cc5nc([C@@H]6CCCN6C(=O)[C@@H](NC(=O)OC)C(C)C)[nH]c5cc4F)N3c3cc(F)c(N4CCC(c5ccc(F)cc5)CC4)c(F)c3)c(F)cc2[nH]1)C(C)C` [Example 4.57, methyl {(2S)-1-[(2S)-2-{5-[(2R,5R)-1-{3,5-difluoro-4-[4-(4-fluorophenyl)piperidin-1-yl]phenyl}-5-{6-fluoro-2-[(2S)-1-{(2S)-2-[(methoxycarbonyl)amino]-3-methylbutanoyl}pyrrolidin-2-yl]-1H-benzimidazol-5-yl}pyrrolidin-2-yl]-6-fluoro-1H-benzimidazol-2-yl}pyrrolidin-1-yl]-3-methyl-1-oxobutan-2-yl}carbamate] was under 0.1 nM.
Under `COC(=O)N[C@H](C(=O)N1CCC[C@H]1c1nc2cc([C@H]3CC[C@H](c4cc5nc([C@@H]6CCCN6C(=O)[C@@H](NC(=O)OC)C6CCOCC6)[nH]c5cc4F)N3c3cc(F)c(N4CCCCC4)c(F)c3)c(F)cc2[nH]1)C1CCOCC1` [Example 3.35, dimethyl ({(2R,5R)-1-[3,5-difluoro-4-(piperidin-1-yl)phenyl]pyrrolidine-2,5-diyl}bis {(6-fluoro-1H-benzimidazole-5,2-diyl)(2S)pyrrolidine-2,1-diyl[(1S)-2-oxo-1-(tetrahydro-2H-pyran-4-yl)ethane-2,1-diyl]})biscarbamate] stands under 0.1 nM.

For the origin of these results see patent publication US20120220562A1, “Anti-Viral Compounds” (ABBOTT LABAORATORIES, priority 2011, published 2012).
